{"source": "ChEMBL document CHEMBL1201862", "about": "“PubChem BioAssay data set” (2004)", "key": {"Protein Tat": {"target": "T1, Protein Tat (Human immunodeficiency virus type 1 group M subtype B (isolate HXB2)(HIV-1), UniProt P04608)", "T1 sequence (P04608 whole entry)": "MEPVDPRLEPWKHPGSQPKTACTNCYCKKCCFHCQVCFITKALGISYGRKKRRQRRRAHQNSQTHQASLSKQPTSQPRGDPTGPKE", "assay_type": "functional"}, "[1]": {"target": "Peroxisome proliferator-activated receptor gamma/Nuclear receptor coactivator 2 (Homo sapiens, UniProt P37231)", "sequence (P37231 whole entry)": "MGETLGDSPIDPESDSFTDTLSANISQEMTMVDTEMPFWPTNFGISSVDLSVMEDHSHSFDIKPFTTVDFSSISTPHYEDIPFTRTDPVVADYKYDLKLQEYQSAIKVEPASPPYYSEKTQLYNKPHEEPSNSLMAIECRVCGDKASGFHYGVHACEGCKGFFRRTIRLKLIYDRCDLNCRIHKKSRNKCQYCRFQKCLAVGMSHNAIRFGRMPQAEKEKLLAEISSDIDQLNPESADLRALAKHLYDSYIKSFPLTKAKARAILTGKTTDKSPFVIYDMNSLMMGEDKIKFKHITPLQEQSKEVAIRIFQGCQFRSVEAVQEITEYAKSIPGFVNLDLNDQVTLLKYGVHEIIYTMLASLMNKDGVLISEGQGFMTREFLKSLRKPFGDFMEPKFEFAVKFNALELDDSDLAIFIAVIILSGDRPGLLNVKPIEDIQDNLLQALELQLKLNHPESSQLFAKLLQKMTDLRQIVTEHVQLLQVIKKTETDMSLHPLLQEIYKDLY", "sequence (Q15596 whole entry, further chain)": "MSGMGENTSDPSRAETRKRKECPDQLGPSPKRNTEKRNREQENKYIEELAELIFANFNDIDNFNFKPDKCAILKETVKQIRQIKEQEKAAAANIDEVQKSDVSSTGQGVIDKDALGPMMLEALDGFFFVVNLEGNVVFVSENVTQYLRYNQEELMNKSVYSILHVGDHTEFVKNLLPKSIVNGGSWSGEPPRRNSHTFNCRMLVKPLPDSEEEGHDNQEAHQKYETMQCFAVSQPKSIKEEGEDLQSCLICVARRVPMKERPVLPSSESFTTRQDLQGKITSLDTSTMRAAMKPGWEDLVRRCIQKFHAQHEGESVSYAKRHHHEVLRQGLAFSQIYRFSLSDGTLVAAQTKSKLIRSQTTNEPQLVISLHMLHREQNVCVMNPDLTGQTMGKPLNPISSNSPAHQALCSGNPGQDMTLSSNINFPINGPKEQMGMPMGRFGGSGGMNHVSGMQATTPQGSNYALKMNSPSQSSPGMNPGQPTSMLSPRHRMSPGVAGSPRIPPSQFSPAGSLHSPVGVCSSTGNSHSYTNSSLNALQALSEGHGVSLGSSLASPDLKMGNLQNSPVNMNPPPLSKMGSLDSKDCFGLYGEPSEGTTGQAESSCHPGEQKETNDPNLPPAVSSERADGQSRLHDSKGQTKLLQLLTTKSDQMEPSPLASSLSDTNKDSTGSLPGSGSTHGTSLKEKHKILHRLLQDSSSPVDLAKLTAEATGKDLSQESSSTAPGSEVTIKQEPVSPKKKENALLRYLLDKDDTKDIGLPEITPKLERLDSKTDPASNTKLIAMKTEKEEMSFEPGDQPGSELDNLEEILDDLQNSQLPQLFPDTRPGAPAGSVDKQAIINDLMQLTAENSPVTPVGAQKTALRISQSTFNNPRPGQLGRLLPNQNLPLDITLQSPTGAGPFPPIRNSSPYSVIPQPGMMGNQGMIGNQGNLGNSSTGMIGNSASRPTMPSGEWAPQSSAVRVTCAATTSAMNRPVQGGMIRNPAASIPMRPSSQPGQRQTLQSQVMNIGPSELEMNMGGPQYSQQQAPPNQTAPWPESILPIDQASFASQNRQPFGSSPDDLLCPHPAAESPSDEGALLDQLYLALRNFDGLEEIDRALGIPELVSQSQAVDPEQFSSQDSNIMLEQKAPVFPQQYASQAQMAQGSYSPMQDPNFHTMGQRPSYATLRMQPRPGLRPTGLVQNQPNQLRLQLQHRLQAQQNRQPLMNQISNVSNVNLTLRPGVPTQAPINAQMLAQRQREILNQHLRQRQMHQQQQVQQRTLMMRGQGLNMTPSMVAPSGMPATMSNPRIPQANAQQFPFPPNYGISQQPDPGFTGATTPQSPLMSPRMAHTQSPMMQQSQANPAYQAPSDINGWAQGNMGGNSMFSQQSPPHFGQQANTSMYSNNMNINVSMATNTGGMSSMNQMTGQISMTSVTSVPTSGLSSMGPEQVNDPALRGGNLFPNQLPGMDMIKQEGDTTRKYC", "assay_type": "functional"}, "[2]": {"target": "Peroxisome proliferator-activated receptor gamma/Nuclear receptor coactivator 1 (Homo sapiens, UniProt P37231)", "assay_type": "functional"}, "[3]": {"target": "Peroxisome proliferator-activated receptor gamma/Nuclear receptor coactivator 3 (Homo sapiens, UniProt P37231)", "sequence (P37231 whole entry)": "as the sequence (P37231 whole entry) above", "sequence (Q9Y6Q9 whole entry, further chain)": "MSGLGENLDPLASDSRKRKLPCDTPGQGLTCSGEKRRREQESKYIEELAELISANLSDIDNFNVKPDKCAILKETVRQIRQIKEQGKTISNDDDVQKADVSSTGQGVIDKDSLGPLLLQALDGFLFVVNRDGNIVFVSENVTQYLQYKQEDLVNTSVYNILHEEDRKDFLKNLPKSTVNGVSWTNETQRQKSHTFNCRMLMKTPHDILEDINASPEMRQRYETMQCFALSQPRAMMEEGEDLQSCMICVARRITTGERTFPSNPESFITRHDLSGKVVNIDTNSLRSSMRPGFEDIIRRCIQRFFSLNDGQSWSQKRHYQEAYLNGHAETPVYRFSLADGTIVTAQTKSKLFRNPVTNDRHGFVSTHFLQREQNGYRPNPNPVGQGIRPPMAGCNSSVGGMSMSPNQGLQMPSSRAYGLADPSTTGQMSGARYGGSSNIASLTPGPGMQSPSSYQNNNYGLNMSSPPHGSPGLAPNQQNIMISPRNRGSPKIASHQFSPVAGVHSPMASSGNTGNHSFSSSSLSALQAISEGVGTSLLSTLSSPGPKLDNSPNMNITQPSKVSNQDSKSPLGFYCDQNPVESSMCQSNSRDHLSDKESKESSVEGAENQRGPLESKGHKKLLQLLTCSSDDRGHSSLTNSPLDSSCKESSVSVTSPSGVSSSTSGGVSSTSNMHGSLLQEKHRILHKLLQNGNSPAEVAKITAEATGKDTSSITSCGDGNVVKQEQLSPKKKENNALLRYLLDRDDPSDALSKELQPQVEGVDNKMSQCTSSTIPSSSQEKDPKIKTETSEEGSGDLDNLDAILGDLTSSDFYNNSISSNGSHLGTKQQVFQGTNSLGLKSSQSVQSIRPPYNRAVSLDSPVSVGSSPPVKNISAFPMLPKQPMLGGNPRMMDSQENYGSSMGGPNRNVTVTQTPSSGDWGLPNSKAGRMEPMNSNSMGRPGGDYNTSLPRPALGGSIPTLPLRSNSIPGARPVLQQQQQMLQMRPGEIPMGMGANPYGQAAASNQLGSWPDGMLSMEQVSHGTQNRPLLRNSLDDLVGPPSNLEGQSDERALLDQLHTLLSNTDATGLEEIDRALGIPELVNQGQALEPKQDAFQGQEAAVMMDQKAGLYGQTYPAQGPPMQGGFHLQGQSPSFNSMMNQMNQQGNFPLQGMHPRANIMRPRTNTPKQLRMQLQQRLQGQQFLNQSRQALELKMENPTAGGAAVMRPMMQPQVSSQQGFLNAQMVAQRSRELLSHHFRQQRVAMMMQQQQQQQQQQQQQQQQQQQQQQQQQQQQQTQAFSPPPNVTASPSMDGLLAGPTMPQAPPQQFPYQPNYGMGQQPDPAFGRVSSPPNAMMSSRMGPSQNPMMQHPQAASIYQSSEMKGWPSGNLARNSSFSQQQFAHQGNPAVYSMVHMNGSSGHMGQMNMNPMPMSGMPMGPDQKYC", "assay_type": "functional"}, "[4]": {"target": "T2, RNA-binding protein pos-1 (Caenorhabditis elegans, UniProt G5EF15)", "T2 sequence (G5EF15 whole entry)": "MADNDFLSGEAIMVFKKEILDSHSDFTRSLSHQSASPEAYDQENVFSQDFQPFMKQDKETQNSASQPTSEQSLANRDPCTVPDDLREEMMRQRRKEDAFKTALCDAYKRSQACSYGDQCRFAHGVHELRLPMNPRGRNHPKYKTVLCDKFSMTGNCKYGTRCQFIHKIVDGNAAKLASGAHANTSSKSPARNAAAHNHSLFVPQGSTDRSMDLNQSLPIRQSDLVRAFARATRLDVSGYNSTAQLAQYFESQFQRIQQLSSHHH", "assay": "inhibitors of POS-1/mex-3 RNA binding, dose response, biochemical, fluorescence polarization (AID 1964);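 note: purified POS-1 fused to maltose binding protein made in E. coli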"}, "[5]": {"target": "T3, Zinc finger protein mex-5 (Caenorhabditis elegans, UniProt Q9XUB2)", "T3 sequence (Q9XUB2 whole entry)": "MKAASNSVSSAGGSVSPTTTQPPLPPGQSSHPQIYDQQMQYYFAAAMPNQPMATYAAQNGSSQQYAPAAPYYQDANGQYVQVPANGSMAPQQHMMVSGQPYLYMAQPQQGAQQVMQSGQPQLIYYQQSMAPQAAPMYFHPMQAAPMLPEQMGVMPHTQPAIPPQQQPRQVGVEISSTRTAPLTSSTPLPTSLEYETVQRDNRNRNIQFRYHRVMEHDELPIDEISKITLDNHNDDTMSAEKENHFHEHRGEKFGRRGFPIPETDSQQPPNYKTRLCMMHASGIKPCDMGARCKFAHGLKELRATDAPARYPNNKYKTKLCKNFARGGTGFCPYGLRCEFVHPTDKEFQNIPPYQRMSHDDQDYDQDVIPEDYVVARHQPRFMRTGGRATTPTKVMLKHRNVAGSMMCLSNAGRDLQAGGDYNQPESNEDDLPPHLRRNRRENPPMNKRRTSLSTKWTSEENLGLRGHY", "assay": "MEX-5/TCR-2 RNA interaction inhibitors, dose response, biochemical, C. elegans, fluorescence polarization (AID 1960)"}, "H4": {"tested_on": "H4", "assay": "Luminescence Cell-Based Dose Response HTS to Identify Activators of 5'UTR Stem-Loop Driven Prion Protein mRNA Translation in H4 Neuroglioblastoma Cells. [Related pubchem assays: 1829 (Project Summary), 1814 (Primary HTS)]", "assay_type": "functional", "settings": "Homo sapiens"}, "Cytochrome P450 3A4": {"target": "Cytochrome P450 3A4 (Homo sapiens, UniProt P08684)", "sequence (P08684 whole entry)": "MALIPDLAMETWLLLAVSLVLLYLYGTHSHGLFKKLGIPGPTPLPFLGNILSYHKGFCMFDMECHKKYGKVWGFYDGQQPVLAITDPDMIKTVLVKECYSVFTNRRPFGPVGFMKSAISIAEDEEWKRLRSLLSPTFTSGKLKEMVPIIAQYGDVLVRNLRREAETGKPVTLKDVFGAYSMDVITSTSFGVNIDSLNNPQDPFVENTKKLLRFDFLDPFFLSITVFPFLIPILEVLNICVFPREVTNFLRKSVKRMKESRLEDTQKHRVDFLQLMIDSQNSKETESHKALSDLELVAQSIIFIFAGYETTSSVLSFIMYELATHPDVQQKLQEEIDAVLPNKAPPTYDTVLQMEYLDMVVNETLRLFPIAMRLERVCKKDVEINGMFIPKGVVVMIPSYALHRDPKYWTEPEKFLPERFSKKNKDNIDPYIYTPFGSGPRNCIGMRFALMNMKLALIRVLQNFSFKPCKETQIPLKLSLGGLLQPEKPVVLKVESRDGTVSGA", "settings": "Potency"}, "Bcl-2-related protein A1 [6]": {"target": "T4, Bcl-2-related protein A1 (Mus musculus, UniProt Q07440)", "T4 sequence (Q07440 whole entry)": "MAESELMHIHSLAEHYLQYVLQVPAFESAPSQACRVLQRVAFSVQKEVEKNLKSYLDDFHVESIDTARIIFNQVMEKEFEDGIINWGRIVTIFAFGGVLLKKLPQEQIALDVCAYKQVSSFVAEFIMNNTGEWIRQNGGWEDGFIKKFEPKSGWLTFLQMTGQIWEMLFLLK", "assay": "Bfl-1 inhibitors blocking BH3 peptide binding, confirmation, biochemical, TR-FRET, mouse Bfl-1 (AID 621);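 note: TR-FRET binding of GST-Bfl-1 to FITC-labelled Bid peptide via terbium antibody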"}, "[7]": {"target": "Glyceraldehyde-3-phosphate dehydrogenase (Homo sapiens, UniProt P04406)"}, "Bcl-2-related protein A1 [8]": {"target": "T4, Bcl-2-related protein A1", "assay": "Bfl-1 binding inhibitors, SAR follow-up, biochemical, fluorescence polarization (AID 1070)"}, "[9]": {"assay": "LGR2 antagonists, dose response, cell-based, HEK293, CRE-luciferase reporter, cherry pick, set 2 (AID 743343);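 note: transfected cells were stimulated with diluted bursicon conditioned medium after compound addition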", "assay_type": "functional"}, "[10]": {"assay": "HepG2 cell cytotoxicity, dose response, cytotoxicity control, plate reader, cherry-pick, antagonist series (AID 743416)", "assay_type": "functional, cell-based"}, "[11]": {"assay": "HEK293 cell cytotoxicity, dose response, cytotoxicity control, plate reader, cherry-picked samples (AID 743446)", "assay_type": "functional, cell-based"}, "[12]": {"assay": "MC4R antagonists, dose response, counter-screen for LGR2 antagonist project, cell-based, plate reader, cherry pick (AID 743444);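 note: transfected HEK 293 cells stimulated with alpha-MSH peptide; potency of inhibitors of the alpha-MSH evoked signal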", "assay_type": "functional"}, "[13]": {"assay": "A549 cell cytotoxicity, dose response, cytotoxicity control, plate reader, cherry-pick, antagonist series (AID 743412)", "assay_type": "functional, cell-based"}, "[14]": {"target": "T5, E3 ubiquitin-protein ligase XIAP (Homo sapiens, UniProt P98170)", "T5 sequence (P98170 whole entry)": "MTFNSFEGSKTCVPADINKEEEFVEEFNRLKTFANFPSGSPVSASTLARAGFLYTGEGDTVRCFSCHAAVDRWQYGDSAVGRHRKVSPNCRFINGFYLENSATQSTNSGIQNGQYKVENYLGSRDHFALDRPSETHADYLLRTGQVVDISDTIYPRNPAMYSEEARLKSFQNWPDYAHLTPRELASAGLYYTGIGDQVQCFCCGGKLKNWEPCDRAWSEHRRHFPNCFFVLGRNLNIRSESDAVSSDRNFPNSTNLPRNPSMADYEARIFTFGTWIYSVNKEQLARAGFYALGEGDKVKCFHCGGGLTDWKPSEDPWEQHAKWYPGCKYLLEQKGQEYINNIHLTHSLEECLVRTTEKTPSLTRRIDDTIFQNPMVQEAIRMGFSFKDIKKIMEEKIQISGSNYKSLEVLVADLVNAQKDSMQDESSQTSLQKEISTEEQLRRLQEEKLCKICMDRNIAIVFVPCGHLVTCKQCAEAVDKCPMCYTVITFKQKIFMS", "assay": "Counter Screen using XIAP-Bir3 for Chemical Antagonists of Bir1/2 domains of IAP-family anti-apoptotic proteins. [Related pubchem assays (depositor defined):AID1018, AID1449, AID1514, AID1638, AID1749, AID1750, AID488957, AID488963]"}, "[15]": {"target": "T5, E3 ubiquitin-protein ligase XIAP", "assay": "XIAP antagonists, biochemical, IAP family, fluorescence polarization (AID 1018)", "assay_type": "functional"}, "[16]": {"assay": "HepG2 cell cytotoxicity, dose response, cytotoxicity control, ATP luminescence, cherry-pick, activator set 2 (AID 1053143)", "assay_type": "functional, cell-based"}}, "note": "The source made the active and inactive calls.", "data": [{"compound": "COc1cc2c3c(c1OC)C1(C=CC(=O)C=C1)CC3N(C(=O)CCC(=O)O)CC2", "note": "(stereo not drawn)", "values": [{"measurement": "IC50", "setting": "Protein Tat", "value": "> 100 µM (active)"}]}, {"compound": "O=C(Nc1cccc(NS(=O)(=O)c2ccc(S(=O)(=O)NC3CC3)cc2)c1)c1ccccn1", "values": [{"measurement": "EC50", "setting": "[1]", "value": "> 79.4 µM (not active)"}, {"measurement": "EC50", "setting": "[2]", "value": "> 79.4 µM (not active)"}, {"measurement": "EC50", "setting": "[3]", "value": "> 79.4 µM (not active)"}]}, {"compound": "O=C(Cc1nc2ccccc2nc1O)c1ccccc1", "values": [{"measurement": "EC50", "setting": "[4]", "value": "42.5 µM (inconclusive)"}, {"measurement": "EC50", "setting": "[5]", "value": "> 300 µM (inconclusive)"}, {"measurement": "EC50", "setting": "H4", "value": "0.419 µM (active)"}, {"measurement": "EC50", "setting": "[1]", "value": "> 79.4 µM (not active)"}, {"measurement": "EC50", "setting": "[2]", "value": "> 79.4 µM (not active)"}, {"measurement": "EC50", "setting": "[3]", "value": "> 79.4 µM (not active)"}]}, {"compound": "NC(=O)CNCCC(c1ccccc1)c1ccccc1", "values": [{"measurement": "AC50", "setting": "Cytochrome P450 3A4", "value": "15.8 µM (inconclusive)"}]}, {"compound": "O=C1C(Cl)=C(N2CCN(c3ccc(Cl)cc3)CC2)C(=O)N1c1ccc(Cl)c(Cl)c1", "values": [{"measurement": "IC50", "setting": "Bcl-2-related protein A1 [6]", "value": "> 100 µM (not active)"}, {"measurement": "IC50", "setting": "[7]", "value": "> 100 µM (not active)"}, {"measurement": "IC50", "setting": "Bcl-2-related protein A1 [8]", "value": "> 100 µM (not active)"}]}, {"compound": "S=C(NC1CCCCC1)NC1CCCCC1", "values": [{"measurement": "AC50", "setting": "Cytochrome P450 3A4", "value": "25.1 µM (inconclusive)"}]}, {"compound": "COCOC1CCC2C3CCC4=CC(=O)CCC4=C3C=CC12C", "note": "(stereo not drawn)", "values": [{"measurement": "IC50", "setting": "Protein Tat", "value": "> 100 µM (active)"}]}, {"compound": "O=C(Nc1ccccc1)c1cc(C2CCCN(C(=O)C3CC3)C2)on1", "note": "(stereo not drawn)", "values": [{"measurement": "AC50", "setting": "[9]", "value": "7.27 µM (active)"}, {"measurement": "AC50", "setting": "[10]", "value": "> 52 µM (inactive)"}, {"measurement": "AC50", "setting": "[11]", "value": "46.4 µM (active)"}, {"measurement": "AC50", "setting": "[12]", "value": "4.34 µM (active)"}, {"measurement": "AC50", "setting": "[13]", "value": "49.2 µM (active)"}]}, {"compound": "Cc1ccc(N(CC(=O)N/N=C/c2cccc(Br)c2)S(C)(=O)=O)cc1", "values": [{"measurement": "IC50", "setting": "[14]", "value": "> 100 µM (inactive)"}, {"measurement": "IC50", "setting": "[15]", "value": "> 100 µM (not active)"}]}, {"compound": "Cc1cc(NC(=O)c2ccc(OCC3CCCO3)cc2)ccc1Br", "note": "(stereo not drawn)", "values": [{"measurement": "AC50", "setting": "[16]", "value": "26 µM (active)"}]}, {"compound": "CCOC(=O)c1s/c(=N\\C(=O)c2ccc(OC)c(OC)c2)n(C)c1C", "values": [{"measurement": "EC50", "setting": "[1]", "value": "12.2 µM (not active)"}, {"measurement": "EC50", "setting": "[2]", "value": "8.1 µM (active)"}, {"measurement": "EC50", "setting": "[3]", "value": "11.4 µM (not active)"}]}, {"compound": "COc1ccc(/N=C2/S/C(=C\\c3ccc(C)o3)C(=O)N2CC(C)C)cc1", "values": [{"measurement": "IC50", "setting": "Protein Tat", "value": "> 100 µM (active)"}]}]}
